# Assay results reported in US20240150321A1, “PYRAZOLYLSULFONAMIDE COMPOUNDS AND THEIR USE IN THERAPY” (HOTSPOT THERAPEUTICS, INC., priority 2022, published 2024).
# Where two headings read alike, the source gives them in different places.
# Experiments:
# [1] = test system: NF-kB reporter in Jurkat cells; experiment: NF-kB reporter assay in Jurkat cells stimulated with aCD3/aCD28/PMA; format: cell-based; details: read-out: NF-kB Reporter Assay IC50
# Summary of the method: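 Luminescence (One-Glo) from the NF-kB reporter yielded IC50 values. Stimulation lasted 4 h at 37° C with aCD3, aCD28 and PMA (final 5, 5 and 0.03 […]), after 1 h compound pre-exposure of 25,000 Jurkat cells per well in serum-free RPMI.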
# Avi-tagged FL MALT-1 = Avi-tagged FL MALT-1 (Homo sapiens (Human), UniProt Q9UDY8); experiment: MALT-1 Fluorogenic Peptide Cleavage Assay (MALT1 inhibition assay); format: biochemical; details: Ac-LRSR-AMC peptide substrate, 30 min pre-incubation, 90 min reaction at room temperature
# Chain of Avi-tagged FL MALT-1 (Q9UDY8 whole entry): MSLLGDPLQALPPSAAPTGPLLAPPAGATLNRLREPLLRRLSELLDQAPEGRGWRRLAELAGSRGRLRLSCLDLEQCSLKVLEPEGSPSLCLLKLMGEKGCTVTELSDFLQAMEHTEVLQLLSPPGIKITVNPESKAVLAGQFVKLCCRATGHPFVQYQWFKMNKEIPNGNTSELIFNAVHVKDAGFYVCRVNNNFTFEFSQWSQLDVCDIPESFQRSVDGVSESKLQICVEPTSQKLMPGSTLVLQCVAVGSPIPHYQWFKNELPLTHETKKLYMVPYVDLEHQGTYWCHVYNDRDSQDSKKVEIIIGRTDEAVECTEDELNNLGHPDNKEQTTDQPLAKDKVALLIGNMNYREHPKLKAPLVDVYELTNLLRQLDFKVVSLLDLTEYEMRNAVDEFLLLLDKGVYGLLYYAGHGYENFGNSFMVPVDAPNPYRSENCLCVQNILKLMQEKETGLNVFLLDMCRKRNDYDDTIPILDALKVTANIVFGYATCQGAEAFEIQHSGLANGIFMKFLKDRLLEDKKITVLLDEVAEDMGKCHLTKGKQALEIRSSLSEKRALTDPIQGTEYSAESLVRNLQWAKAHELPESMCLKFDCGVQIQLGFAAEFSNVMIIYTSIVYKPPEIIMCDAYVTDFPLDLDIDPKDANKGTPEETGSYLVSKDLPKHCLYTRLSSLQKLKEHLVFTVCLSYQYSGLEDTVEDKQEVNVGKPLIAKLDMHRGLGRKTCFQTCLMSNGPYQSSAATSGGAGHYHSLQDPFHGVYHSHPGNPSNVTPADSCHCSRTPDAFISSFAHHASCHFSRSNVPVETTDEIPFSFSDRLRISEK
# Summary of the method: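 Cleavage of Ac-LRSR-AMC, read as fluorescence at 342/441 nm after 90 min at room temperature, with substrate working stocks of 50 μM (Km) or 280 μM (10×Km). Enzyme, Avi-tagged full-length MALT-1 (40 nM stock), was first pre-incubated 30 min with compound in citrate/HEPES pH 6.89 buffer with TCEP, EDTA, CHAPS and 2% DMSO; IC50 fitted from normalised % inhibition.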
# [2] = Homo sapiens, Jurkat cells, 1 hr compound pre-incubation, aCD3/aCD28/PMA stimulation 4 hr, One-Glo readout
SMILES,"IC50 ([1]; Jurkat cells, 1 hr compound pre-incubation, aCD3/aCD28/PMA stimulation 4 hr, One-Glo readout) [nM]",IC50 (Avi-tagged FL MALT-1) [nM],"IC50 ([1]; Homo sapiens, Jurkat) [nM]","IC50 [1, 2] [nM]"
"CC1CC(F)(c2ccnc(-n3cc(S(=O)(=O)Nc4cccc5cnn(C)c45)cn3)c2)C1 (stereo not drawn) [Compound I-395, 1-(4-(1-fluoro-3-methylcyclobutyl)pyridin-2-yl)-N-(1-methyl-1H-indazol-7-yl)-1H-pyrazole-4-sulfonamide]",< 400,> 2500,–,–
"O=S(=O)(c1cnn(-c2cc(C(F)(F)F)ccn2)c1)N1CCCCn2ncc3cccc1c32 [Compound I-396, 1-((1-(4-(trifluoromethyl)pyridin-2-yl)-1H-pyrazol-4-yl)sulfonyl)-2,3,4,5-tetrahydro-1H-[1,4]diazocino[3,2,1-hi]indazole]",–,> 2500,> 2500,–
COc1ncc2cnn(C)c2c1NS(=O)(=O)c1cnn(-c2cc(N3CC(C)C3)ccn2)c1 [Compound I-397],–,1000 to 2500,–,< 400
"COc1ncc2cnn(C)c2c1NS(=O)(=O)c1cnn(-c2cc(N3CCCC3)ccn2)c1 [Compound I-398, N-{6-methoxy-1-methylpyrazolo[4,3-c]pyridin-7-yl}-1-[4-(pyrrolidin-1-yl)pyridin-2-yl]pyrazole-4-sulfonamide]",–,400 to 1000,–,< 400
"COC1CC(c2ccnc(-n3cc(S(=O)(=O)Nc4cccc5cnn(C)c45)cn3)c2)C1 (stereo not drawn) [Compound I-399, 1-(4-(3-methoxycyclobutyl)pyridin-2-yl)-N-(1-methyl-1H-indazol-7-yl)-1H-pyrazole-4-sulfonamide]",–,> 2500,–,< 400
"C[C@H]1CCN(c2ccnc(-n3cc(S(=O)(=O)Nc4cccc5cnn(C)c45)cn3)c2)C1 [Compound I-400, N-(1-methylindazol-7-yl)-1-{4-[(3S)-3-methylpyrrolidin-1-yl]pyridin-2-yl} pyrazole-4-sulfonamide]",–,> 2500,–,< 400
"C[C@@H]1CCN(c2ccnc(-n3cc(S(=O)(=O)Nc4cccc5cnn(C)c45)cn3)c2)C1 [Compound I-401, N-(1-methylindazol-7-yl)-1-{4-[(3R)-3-methylpyrrolidin-1-yl]pyridin-2-yl}pyrazole-4-sulfonamide]",–,> 2500,–,< 400
COc1ccc2cnn(C)c2c1NS(=O)(=O)c1cnn(-c2cc(N3CC[C@H](C)C3)ccn2)c1 [Compound I-402],–,> 2500,–,< 400
COc1ccc2cnn(C)c2c1NS(=O)(=O)c1cnn(-c2cc(N3CC[C@@H](C)C3)ccn2)c1 [Compound I-403],–,> 2500,–,< 400
COc1ccc2cnn(C)c2c1NS(=O)(=O)c1cnn(-c2cc(N3CC4CC(C4)C3)ccn2)c1 [Compound I-404],–,> 2500,–,< 400
COc1ncc2cnn(C)c2c1NS(=O)(=O)c1cnn(-c2cc(N3CC4CC4C3)ccn2)c1 (stereo not drawn) [Compound I-405],–,> 2500,–,< 400
COc1ncc2cnn(C)c2c1NS(=O)(=O)c1cnn(-c2cc(N3CC4CC(C4)C3)ccn2)c1 [Compound I-406],–,> 2500,–,< 400
COc1ncc2cnn(C)c2c1NS(=O)(=O)c1cnn(-c2cc(N3CCC(C)CC3)ccn2)c1 [Compound I-407],–,> 2500,–,< 400
COc1ncc2cnn(C)c2c1NS(=O)(=O)c1cnn(-c2cc(N3CCCCCC3)ccn2)c1 [Compound I-408],–,> 2500,–,< 400
"Cn1ncc2cccc(NS(=O)(=O)c3cnn(-c4cc(N5CC6CC5C6)ccn4)c3)c21 [Compound I-409, 1-(4-{2-azabicyclo[2.1.1]hexan-2-yl}pyridin-2-yl)-N-(1-methylindazol-7-yl)pyrazole-4-sulfonamide]",–,> 2500,–,< 400
"Cn1ncc2cccc(NS(=O)(=O)c3cnn(-c4cc(N5CCC6(CC6)C5)ccn4)c3)c21 [Compound I-410, 1-(4-{5-azaspiro[2.4]heptan-5-yl}pyridin-2-yl)-N-(1-methylindazol-7-yl)pyrazole-4-sulfonamide]",–,> 2500,–,< 400
"[2H]C([2H])([2H])n1ncc2cnc(OC)c(NS(=O)(=O)c3cnn(-c4cc(C(C)(F)F)ccn4)c3)c21 [Compound I-411, 1-(4-(1,1-Difluoroethyl)Pyridin-2-yl)-N-(6-Methoxy-1-(Methyl-D3)-1H-Pyrazolo[4,3-C]Pyridin-7-yl)-1H-Pyrazole-4-Sulfonamide]",–,≤ 400,–,< 400

SMILES,"IC50 ([1]; Jurkat cells, 1 hr compound pre-incubation, aCD3/aCD28/PMA stimulation 4 hr, One-Glo readout) [nM]",IC50 (Avi-tagged FL MALT-1) [nM],"IC50 ([1]; Homo sapiens, Jurkat) [nM]","IC50 [1, 2] [nM]"
"[2H]C([2H])([2H])n1ncc2ccc(OC)c(NS(=O)(=O)c3cnn(-c4cc(C(C)(F)F)ccn4)c3)c21 [Compound I-412, 1-(4-(1,1-Difluoroethyl)Pyridin-2-yl)-N-(6-Methoxy-1-(Methyl-D3)-1H-Indazol-7-yl)-1H-Pyrazole-4-Sulfonamide]",–,≤ 400,–,< 400
"COc1ccc2cnn(C)c2c1NS(=O)(=O)c1cnn(-c2cc(C3(F)CC(C)C3)ccn2)c1 (stereo not drawn) [Compound I-413, 1-(4-(1-fluoro-3-methylcyclobutyl)pyridin-2-yl)-N-(6-methoxy-1-methyl-1H-indazol-7-yl)-1H-pyrazole-4-sulfonamide]",–,400 to 1000,–,< 400
CN1CC[C@@H](n2cc(S(=O)(=O)Nc3cccc4cnn(C)c34)cn2)CC1=O [Compound I-414],–,> 2500,–,> 2500
CN1CC[C@H](n2cc(S(=O)(=O)Nc3cccc4cnn(C)c34)cn2)CC1=O [Compound I-415],–,> 2500,–,> 2500
COc1ncc2cnn(C)c2c1NS(=O)(=O)c1cnn(-c2cc(N3CCOCC3)ccn2)c1 [Compound I-416],–,> 2500,–,1000 to 2500
COc1ccc2cnn(C)c2c1NS(=O)(=O)c1cnn(-c2cc(N3CC4CC4C3)ccn2)c1 (stereo not drawn) [Compound I-417],–,> 2500,–,< 400
COc1ccc2cnn(C)c2c1NS(=O)(=O)c1cnn(-c2cc(N3CCC(C)CC3)ccn2)c1 [Compound I-418],–,> 2500,–,< 400
COc1ncc2cnn(C)c2c1NS(=O)(=O)c1cnn(-c2cc(N3CC[C@H](C)C3)ccn2)c1 [Compound I-419],–,> 2500,–,< 400
COc1ncc2cnn(C)c2c1NS(=O)(=O)c1cnn(-c2cc(N3CC[C@@H](C)C3)ccn2)c1 [Compound I-420],–,> 2500,–,< 400
"Cn1ncc2cccc(NS(=O)(=O)c3cnn(-c4cc(N5CCC(C)(C)C5)ccn4)c3)c21 [Compound I-421, 1-(4-(3,3-dimethylpyrrolidin-1-yl)pyridin-2-yl)-N-(1-methyl-1H-indazol-7-yl)-1H-pyrazole-4-sulfonamide]",–,> 2500,–,< 400
COc1ccc2cnn(C)c2c1NS(=O)(=O)c1cnn(-c2cc(N3CC[C@H](F)C3)ccn2)c1 [Compound I-422],–,> 2500,–,< 400
COc1ccc2cnn(C)c2c1NS(=O)(=O)c1cnn(-c2cc(N3CC[C@@H](F)C3)ccn2)c1 [Compound I-423],–,> 2500,–,< 400
COc1ncc2cnn(C)c2c1NS(=O)(=O)c1cnn(-c2cc(N3CCC4(CC4)C3)ccn2)c1 [Compound I-424],–,> 2500,–,< 400
COc1ncc2cnn(C)c2c1NS(=O)(=O)c1cnn(-c2cc(N3CCC(C)(C)C3)ccn2)c1 [Compound I-425],–,> 2500,–,< 400
COc1ncc2cnn(C)c2c1NS(=O)(=O)c1cnn(-c2cc(N3CC[C@H](F)C3)ccn2)c1 [Compound I-426],–,> 2500,–,< 400
COc1ncc2cnn(C)c2c1NS(=O)(=O)c1cnn(-c2cc(N3CC[C@@H](F)C3)ccn2)c1 [Compound I-427],–,> 2500,–,400 to 1000
